Each block holds one compound with its values, some of them ahead of it. Starred links: 1 amine or outer side, 2 acyl side, 3 side chain; linkers in the order of their positions; H or OH if unused. Non-standard residues stand in square brackets, D forms with d. Residues, ends and D or L forms follow the SMILES beside them. Groups on a side chain read outwards from the residue. *: point of attachment. C20 diacid = O=C(O)CCCCCCCCCCCCCCCCCCC(=O)*; C18 diacid = O=C(O)CCCCCCCCCCCCCCCCC(=O)*; γGlu = O=C(O)[C@H](CCC(=O)[*:2])N[*:1]; αMeF = C[C@](N)(Cc1ccccc1)C(=O)O; AEEA = NCCOCCOCC(=O)O; Aib = CC(C)(N)C(=O)O
What was measured:
wildtype (WT) mice = experiment: Glucose change in wildtype mice; type: in vivo, mouse; conditions: s.c., 30 nmol/kg, no somatostatin pretreatment
Protocol: […] and wildtype (WT) mice at 8-14 weeks of age were singly housed on standard chow diet (Envigo, 2918) and automatic water. They acclimated for a minimum of ˜1-2 weeks, and mice were sorted into groups (n=4-8/group) based on body weight. On day of study, mice were fasted briefly for 2 hrs prior to study start. In some studies, mice were pre-treated with octreotide (BaChem, 10 mg/kg) at 30 minutes prior to peptide injection. Glucose was measured via glucometer at various timepoints including −30 min (prior to octreotide when used in studies), 0 min (before peptide dose), 30, 60, 120, 180, 240, and 360 minutes. Since these studies are acute in nature, mice were re-used for multiple studies (no more than 3) and always allowed at least a minimum wash-out period of 1 week.

neprilysin = target: T1, neprilysin (Homo sapiens, UniProt P08473); experiment: Proteolytic resistance to neprilysin; type: in vitro ADME; conditions: pH 8.3
T1 construct: purchased R&D Systems 1182-ZNC-010
Protocol: 10.0 μg (˜10 units) recombinant Neprilysin (R&D Systems: 1182-ZNC-010) was reconstituted to 100 μL (100 μg/mL, ˜100 units/mL) in assay buffer (50 mM Tris, 50 mM NaCl, 50 mM NaHCO3, adjusted to pH 8.3) to give the enzyme stock solution. Peptide stock solutions were prepared to a concentration of ˜250 μM (˜1.0 mg/mL of 4 kDa peptide) in assay buffer. 100 μL (10 μg, ˜10 units) of neprilysin stock solution was added to 100 μL of peptide stock solution (1.0 mg/mL, ˜100 μg of peptide) and the mixture was co-incubated in a temperature regulated incubator at 37° C. for the duration of the experiment. 25 μL aliquots (˜12.5 μg initial peptide) of the peptide-enzyme mixture were periodically withdrawn (t=0, 30 mins, 1 h, 2 h, 4 h and 24 h) and quenched immediately by addition to an equal volume ([…]) of 10% TFA (v/v) in 1:1 water/acetonitrile to arrest proteolytic activity. The quenched aliquot centrifuged at 7800 rpm, and 30 μL of the supernatant was analyzed by analytical RP-HPLC as follows: Analytical RP-HPLC method: Agilent Polaris C8-A column (4.6×100 mm, 3 micron) eluted with a linear binary gradient of 10-90% MeCN (0.1% TFA v/v) in water (0.1% TFA v/v) over either 10 or 15 mins at 1.5 mL min^−1 at 40° C. with detection by UV absorption at 210 nm. Manual integration (AUC) allowed estimation of remaining intact peptide over the time course of the experiment.

[1] = target: T2, human GLP-1 receptor (hGLP-1R) (Homo sapiens, UniProt P43220); experiment: cAMP production (HTRF) in CHO cells expressing human GLP-1 receptor; type: cell-based
T2 construct: expressed in transfected cells; host or cells: CHO

[2] = target: T3, human glucagon receptor (hGCGR) (Homo sapiens, UniProt P47871); experiment: cAMP production (HTRF) in CHO cells expressing human glucagon receptor; type: cell-based; conditions: Table 7, modification at position 20, CHO cells expressing hGCGR, geometric mean, read-out: hGluc-R EC50
T3 construct: expressed in transfected cells; host or cells: CHO
T3 sequence (P47871 26-477): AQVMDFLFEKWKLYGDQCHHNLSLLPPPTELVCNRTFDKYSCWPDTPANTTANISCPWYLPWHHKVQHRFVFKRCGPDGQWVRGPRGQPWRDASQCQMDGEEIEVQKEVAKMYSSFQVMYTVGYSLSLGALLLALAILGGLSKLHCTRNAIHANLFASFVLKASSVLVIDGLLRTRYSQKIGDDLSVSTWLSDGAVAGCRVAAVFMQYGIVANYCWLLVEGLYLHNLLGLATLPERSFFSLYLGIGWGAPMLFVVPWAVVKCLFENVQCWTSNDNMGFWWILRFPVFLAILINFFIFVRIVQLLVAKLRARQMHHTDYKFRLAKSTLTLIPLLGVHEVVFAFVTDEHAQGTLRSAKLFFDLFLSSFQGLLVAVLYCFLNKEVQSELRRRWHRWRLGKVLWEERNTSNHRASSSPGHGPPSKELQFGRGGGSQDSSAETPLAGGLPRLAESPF

T1 sequence (P08473 whole entry): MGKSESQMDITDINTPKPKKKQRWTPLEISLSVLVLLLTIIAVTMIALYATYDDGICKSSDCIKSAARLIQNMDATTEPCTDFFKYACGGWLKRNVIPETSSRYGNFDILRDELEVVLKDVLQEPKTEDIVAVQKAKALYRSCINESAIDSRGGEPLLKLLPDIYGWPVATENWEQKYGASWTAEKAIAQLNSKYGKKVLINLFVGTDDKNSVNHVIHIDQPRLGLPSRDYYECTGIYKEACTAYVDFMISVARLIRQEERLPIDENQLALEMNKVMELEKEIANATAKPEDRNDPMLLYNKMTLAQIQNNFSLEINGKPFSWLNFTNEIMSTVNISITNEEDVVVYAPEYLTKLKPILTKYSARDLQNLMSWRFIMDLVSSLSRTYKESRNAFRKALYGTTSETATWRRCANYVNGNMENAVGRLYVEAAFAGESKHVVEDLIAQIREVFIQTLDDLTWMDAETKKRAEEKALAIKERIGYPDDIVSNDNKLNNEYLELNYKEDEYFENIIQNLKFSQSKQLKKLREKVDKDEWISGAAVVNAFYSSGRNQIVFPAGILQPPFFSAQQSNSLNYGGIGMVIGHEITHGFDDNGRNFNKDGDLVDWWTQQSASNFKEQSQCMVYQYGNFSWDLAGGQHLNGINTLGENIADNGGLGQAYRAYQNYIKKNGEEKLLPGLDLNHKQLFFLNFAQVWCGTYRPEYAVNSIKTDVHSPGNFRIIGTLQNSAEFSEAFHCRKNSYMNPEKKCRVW
T2 sequence (P43220 24-463): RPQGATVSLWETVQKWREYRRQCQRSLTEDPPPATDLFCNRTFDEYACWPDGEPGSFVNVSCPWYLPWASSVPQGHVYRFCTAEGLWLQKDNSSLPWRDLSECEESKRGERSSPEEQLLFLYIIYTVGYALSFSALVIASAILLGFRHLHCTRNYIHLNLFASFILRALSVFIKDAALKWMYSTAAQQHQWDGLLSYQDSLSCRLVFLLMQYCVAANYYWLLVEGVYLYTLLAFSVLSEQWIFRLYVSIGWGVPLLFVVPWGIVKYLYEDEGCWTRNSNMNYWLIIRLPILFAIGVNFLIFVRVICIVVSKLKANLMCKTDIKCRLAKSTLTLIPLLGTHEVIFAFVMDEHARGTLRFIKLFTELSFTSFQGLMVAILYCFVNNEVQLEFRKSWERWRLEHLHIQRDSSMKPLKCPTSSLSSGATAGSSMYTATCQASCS

SMILES: CC(C)C[C@H](NC(=O)[C@H](Cc1c[nH]c2ccccc12)NC(=O)[C@H](CCCNC(=N)N)NC(=O)[C@@H](NC(=O)[C@H](Cc1ccccc1)NC(=O)[C@H](CC(=O)O)NC(=O)[C@H](CCC(N)=O)NC(=O)[C@H](C)NC(=O)[C@H](CCCNC(=N)N)NC(=O)[C@H](CCCCNC(=O)COCCOCCNC(=O)COCCOCCNC(=O)CC[C@H](NC(=O)CCCCCCCCCCCCCCCCC(=O)O)C(=O)O)NC(=O)[C@@H](NC(=O)[C@H](CC(=O)O)NC(=O)[C@H](CC(C)C)NC(=O)[C@](C)(Cc1ccccc1)NC(=O)[C@H](CCCCN)NC(=O)[C@H](CO)NC(=O)[C@@H](NC(=O)[C@H](CC(=O)O)NC(=O)[C@H](CO)NC(=O)[C@@H](NC(=O)[C@H](Cc1ccccc1)NC(=O)[C@@H](NC(=O)CNC(=O)[C@H](CCC(N)=O)NC(=O)C(C)(C)NC(=O)[C@@H](N)Cc1c[nH]cn1)[C@@H](C)O)[C@@H](C)O)C(C)C)[C@@H](C)O)C(C)C)C(=O)N[C@@H](CC(C)C)C(=O)N[C@@H](CCC(=O)O)C(=O)NC(C)(C)C(=O)NCC(=O)O [Peptide 140] (H-H[Aib]QGTFTSDVSK[αMeF]LDTK([AEEA-AEEA-γGlu-C18 diacid])RAQDFVRWLLE[Aib]G-OH; N-terminus assumed)
WT % glucose change 60 min (wildtype (WT) mice): −29.0%

% intact peptide over time, Neprilysin (neprilysin): 100%
SMILES: CC[C@H](C)[C@H](NC(=O)C(C)(C)NC(=O)[C@H](CCC(N)=O)NC(=O)[C@@H](NC(=O)[C@](C)(Cc1ccccc1)NC(=O)[C@H](CC(=O)O)NC(=O)[C@H](CCCCNC(=O)COCCOCCNC(=O)COCCOCCNC(=O)CC[C@H](NC(=O)CC[C@H](NC(=O)CCCCCCCCCCCCCCCCCCC(=O)O)C(=O)O)C(=O)O)NC(=O)[C@H](C)NC(=O)[C@H](C)NC(=O)[C@H](CCCNC(=N)N)NC(=O)[C@H](CO)NC(=O)[C@H](CC(=O)O)NC(=O)[C@H](CC(C)C)NC(=O)[C@H](Cc1ccc(O)cc1)NC(=O)[C@H](CCCCN)NC(=O)[C@H](CO)NC(=O)[C@@H](NC(=O)[C@H](CC(=O)O)NC(=O)[C@H](CO)NC(=O)[C@@H](NC(=O)[C@](C)(Cc1ccccc1)NC(=O)[C@H](CO)NC(=O)CNC(=O)[C@H](Cc1c[nH]cn1)NC(=O)C(C)(C)NC(=O)[C@@H](N)Cc1c[nH]cn1)[C@@H](C)O)C(C)C)C(C)C)C(=O)N[C@@H](C)C(=O)N[C@@H](CC(N)=O)C(=O)N[C@H](C(N)=O)[C@@H](C)O [Peptide 283] (H-H[Aib]HGS[αMeF]TSDVSKYLDSRAAK([AEEA-AEEA-γGlu-γGlu-C20 diacid])D[αMeF]VQ[Aib]IANT-NH2)

% intact peptide over time, Neprilysin (neprilysin): 100%
SMILES: CC[C@H](C)[C@H](NC(=O)C(C)(C)NC(=O)[C@H](CCC(N)=O)NC(=O)[C@@H](NC(=O)[C@H](Cc1ccccc1)NC(=O)[C@H](CC(=O)O)NC(=O)[C@H](CCCCNC(=O)COCCOCCNC(=O)COCCOCCNC(=O)CC[C@H](NC(=O)CCCCCCCCCCCCCCCCC(=O)O)C(=O)O)NC(=O)[C@H](C)NC(=O)[C@H](C)NC(=O)[C@H](CCCNC(=N)N)NC(=O)[C@H](CO)NC(=O)[C@H](CC(=O)O)NC(=O)[C@H](CC(C)C)NC(=O)[C@](C)(Cc1ccccc1)NC(=O)[C@H](CCCCN)NC(=O)[C@H](CO)NC(=O)[C@@H](NC(=O)[C@H](CC(=O)O)NC(=O)[C@H](CO)NC(=O)[C@@H](NC(=O)[C@](C)(Cc1ccccc1)NC(=O)[C@H](CO)NC(=O)CNC(=O)[C@H](Cc1c[nH]cn1)NC(=O)C(C)(C)NC(=O)[C@@H](N)Cc1c[nH]cn1)[C@@H](C)O)C(C)C)C(C)C)C(=O)N[C@@H](C)C(=O)N[C@@H](CC(N)=O)C(=O)N[C@H](C(N)=O)[C@@H](C)O [Peptide 287] (H-H[Aib]HGS[αMeF]TSDVSK[αMeF]LDSRAAK([AEEA-AEEA-γGlu-C18 diacid])DFVQ[Aib]IANT-NH2)

% intact peptide over time, Neprilysin (neprilysin): 100%
SMILES: CC[C@H](C)[C@H](NC(=O)C(C)(C)NC(=O)[C@H](CCC(N)=O)NC(=O)[C@@H](NC(=O)[C@](C)(Cc1ccccc1)NC(=O)[C@H](CC(=O)O)NC(=O)[C@H](CCCCNC(=O)COCCOCCNC(=O)COCCOCCNC(=O)CC[C@H](NC(=O)CC[C@H](NC(=O)CCCCCCCCCCCCCCCCCCC(=O)O)C(=O)O)C(=O)O)NC(=O)[C@H](C)NC(=O)[C@H](C)NC(=O)[C@H](CCCNC(=N)N)NC(=O)[C@H](CO)NC(=O)[C@H](CC(=O)O)NC(=O)[C@H](CC(C)C)NC(=O)[C@](C)(Cc1ccccc1)NC(=O)[C@H](CCCCN)NC(=O)[C@H](CO)NC(=O)[C@@H](NC(=O)[C@H](CC(=O)O)NC(=O)[C@H](CO)NC(=O)[C@@H](NC(=O)[C@H](Cc1ccccc1)NC(=O)[C@H](CO)NC(=O)CNC(=O)[C@H](Cc1c[nH]cn1)NC(=O)C(C)(C)NC(=O)[C@@H](N)Cc1c[nH]cn1)[C@@H](C)O)C(C)C)C(C)C)C(=O)N[C@@H](C)C(=O)N[C@@H](CC(N)=O)C(=O)N[C@H](C(N)=O)[C@@H](C)O [Peptide 282] (H-H[Aib]HGSFTSDVSK[αMeF]LDSRAAK([AEEA-AEEA-γGlu-γGlu-C20 diacid])D[αMeF]VQ[Aib]IANT-NH2)

EC50 ([1]; Table 7, modification at position 20, CHO cells expressing hGLP-1R, cAMP, geometric mean, read-out: hGLP-1R EC50): 0.347 nM
% Relative Potency Ratio ([1]; Table 7, % GLP-1R activity relative to GLP-1 / % GlucR activity relative to glucagon): 1.5
EC50 [2]: 0.26 nM
remaining at 4 h, 125 µM (neprilysin; isolated enzyme neprilysin): 89%
remaining at 24 h, 125 µM (neprilysin; isolated enzyme neprilysin): 82%
% intact peptide over time, Neprilysin (neprilysin): 100%
SMILES: CC[C@H](C)[C@H](NC(=O)[C@H](Cc1c[nH]c2ccccc12)NC(=O)[C@H](CCC(N)=O)NC(=O)[C@@H](NC(=O)[C@H](Cc1ccccc1)NC(=O)[C@H](CC(=O)O)NC(=O)[C@H](CCCCNC(=O)COCCOCCNC(=O)COCCOCCNC(=O)CC[C@H](NC(=O)CC[C@H](NC(=O)CCCCCCCCCCCCCCCCCCC(=O)O)C(=O)O)C(=O)O)NC(=O)[C@H](C)NC(=O)[C@H](C)NC(=O)[C@H](CCCNC(=N)N)NC(=O)[C@H](CO)NC(=O)[C@H](CC(=O)O)NC(=O)[C@H](CC(C)C)NC(=O)[C@](C)(Cc1ccccc1)NC(=O)[C@H](CCCCN)NC(=O)[C@H](CO)NC(=O)[C@@H](NC(=O)[C@H](CC(=O)O)NC(=O)[C@H](CO)NC(=O)[C@@H](NC(=O)[C@H](Cc1ccccc1)NC(=O)[C@H](CO)NC(=O)CNC(=O)[C@H](Cc1c[nH]cn1)NC(=O)C(C)(C)NC(=O)[C@@H](N)Cc1c[nH]cn1)[C@@H](C)O)C(C)C)C(C)C)C(=O)N[C@@H](C)C(=O)N[C@@H](CC(N)=O)C(=O)N[C@H](C(N)=O)[C@@H](C)O [Peptide 290] (H-H[Aib]HGSFTSDVSK[αMeF]LDSRAAK([AEEA-AEEA-γGlu-γGlu-C20 diacid])DFVQWIANT-NH2; N-terminus assumed)

% intact peptide over time, Neprilysin (neprilysin): 100%
SMILES: CC[C@H](C)[C@H](NC(=O)C(C)(C)NC(=O)[C@H](CCC(=O)O)NC(=O)[C@@H](NC(=O)[C@](C)(Cc1ccccc1)NC(=O)[C@H](CC(=O)O)NC(=O)[C@H](CCCNC(=N)N)NC(=O)[C@H](C)NC(=O)[C@H](C)NC(=O)[C@H](CCCCNC(=O)COCCOCCNC(=O)COCCOCCNC(=O)CC[C@H](NC(=O)CCCCCCCCCCCCCCCCC(=O)O)C(=O)O)NC(=O)[C@H](CO)NC(=O)[C@H](CC(=O)O)NC(=O)[C@H](CC(C)C)NC(=O)[C@](C)(Cc1ccccc1)NC(=O)[C@H](CCCCN)NC(=O)[C@H](CO)NC(=O)[C@@H](NC(=O)[C@H](CC(=O)O)NC(=O)[C@H](CO)NC(=O)[C@@H](NC(=O)[C@](C)(Cc1ccccc1)NC(=O)[C@H](CO)NC(=O)CNC(=O)[C@H](Cc1c[nH]cn1)NC(=O)C(C)(C)NC(=O)[C@@H](N)Cc1c[nH]cn1)[C@@H](C)O)C(C)C)C(C)C)C(=O)N[C@@H](C)C(=O)N[C@@H](CC(N)=O)C(=O)N[C@H](C(N)=O)[C@@H](C)O [Peptide 15] (H-H[Aib]HGS[αMeF]TSDVSK[αMeF]LDSK([AEEA-AEEA-γGlu-C18 diacid])AARD[αMeF]VE[Aib]IANT-NH2; N-terminus assumed)
